Assay: xn = mol fraction of the nth substance listed, in the solute-free solvent

CCC(C(C)O)n1ncn(-c2ccc(N3CCN(c4ccc(OCC5COC(Cn6cncn6)(c6ccc(F)cc6F)C5)cc4)CC3)cc2)c1=O (centres undefined) + CCOC(C)=O + CC(C)O
solubility (g/100 g solution)
Details	273.15 K	278.15 K	283.15 K	288.15 K	293.15 K	298.15 K	303.15 K	308.15 K	313.15 K
x2 = 0.07045	0.00869	0.0113	0.015	0.0192	0.0237	0.0294	0.0352	0.0423	0.0504
x2 = 0.1457	0.0114	0.0145	0.0186	0.023	0.0283	0.0344	0.0415	0.049	0.058
x2 = 0.2262	0.0148	0.0192	0.0245	0.0306	0.0374	0.0445	0.0524	0.0621	0.0721
x2 = 0.3126	0.0191	0.0242	0.0305	0.0373	0.0452	0.0542	0.0641	0.0753	0.0897
x2 = 0.4055	0.0249	0.0308	0.039	0.0482	0.0589	0.071	0.0837	0.0987	0.119
x2 = 0.5057	0.0321	0.0401	0.0493	0.0608	0.0728	0.0857	0.103	0.121	0.145
x2 = 0.6141	0.0354	0.0469	0.0581	0.0726	0.0862	0.101	0.118	0.14	0.164
x2 = 0.7318	0.0383	0.0499	0.0636	0.0793	0.0965	0.115	0.135	0.16	0.186
x2 = 0.8599	0.0405	0.0522	0.066	0.0819	0.101	0.12	0.142	0.166	0.193

CCC(C(C)O)n1ncn(-c2ccc(N3CCN(c4ccc(OCC5COC(Cn6cncn6)(c6ccc(F)cc6F)C5)cc4)CC3)cc2)c1=O (centres undefined) + CCOC(C)=O + CCO
solubility (g/100 g solution)
Details	273.15 K	278.15 K	283.15 K	288.15 K	293.15 K	298.15 K	303.15 K	308.15 K	313.15 K
x2 = 0.05491	0.0447	0.057	0.0728	0.0894	0.109	0.13	0.151	0.174	0.201
x2 = 0.1156	0.0657	0.084	0.104	0.125	0.148	0.173	0.2	0.229	0.264
x2 = 0.1831	0.106	0.131	0.158	0.188	0.217	0.251	0.289	0.33	0.38
x2 = 0.2585	0.144	0.174	0.207	0.243	0.28	0.323	0.37	0.422	0.484
x2 = 0.3434	0.162	0.191	0.227	0.265	0.308	0.358	0.417	0.486	0.561
x2 = 0.4396	0.142	0.171	0.202	0.237	0.27	0.311	0.359	0.412	0.48
x2 = 0.5496	0.112	0.137	0.163	0.192	0.221	0.253	0.285	0.321	0.36
x2 = 0.6765	0.0924	0.114	0.136	0.158	0.182	0.206	0.232	0.259	0.294
x2 = 0.8247	0.0667	0.0831	0.101	0.119	0.138	0.158	0.182	0.21	0.24

CC1(C)SC2C(NC(=O)C(NC(=O)N3CCNC3=O)c3ccccc3)C(=O)N2C1C(=O)O (centres undefined) + CCO + CC(C)O
solubility (g/100 g solution)
Details	278.15 K	283.15 K	288.15 K	293.15 K	298.15 K	303.15 K	308.15 K	313.15 K	318.15 K	323.15 K
x2 = 0.101	0.0833	0.0951	0.122	0.14	0.179	0.215	0.264	0.329	0.405	0.525
x2 = 0.2	0.0893	0.101	0.129	0.153	0.191	0.238	0.294	0.368	0.449	0.59
x2 = 0.301	0.119	0.135	0.164	0.208	0.248	0.287	0.369	0.426	0.528	0.687
x2 = 0.401	0.13	0.155	0.19	0.238	0.281	0.339	0.415	0.511	0.63	0.773
x2 = 0.5	0.154	0.182	0.223	0.279	0.345	0.399	0.484	0.636	0.78	0.991
x2 = 0.602	0.197	0.227	0.275	0.345	0.43	0.537	0.646	0.789	0.974	1.25
x2 = 0.703	0.268	0.302	0.368	0.464	0.539	0.677	0.857	1.05	1.29	1.61
x2 = 0.8	0.37	0.45	0.53	0.623	0.718	0.882	1.15	1.38	1.67	2.05
x2 = 0.9	0.54	0.618	0.748	0.927	1.11	1.35	1.69	2.01	2.39	2.92

CCCCN1CCCCC1C(=O)Nc1c(C)cccc1C.Cl.O (centres undefined) + CCO + O
solubility (g/100 g solution)
Details	293.15 K	298.15 K	303.15 K	308.15 K	313.15 K	318.15 K	323.15 K	328.15 K	333.15 K
x2 = 0.1	3.04	3.34	4.11	4.86	5.9	7.35	9.3	11.2	12.9
x2 = 0.2	3.1	3.37	4.04	4.84	6.41	7.92	10.1	12.9	15.1
x2 = 0.3	2.9	3.27	3.99	5.42	7.36	9.56	12.4	15.8	19
x2 = 0.4	2.85	3.29	4.28	5.77	7.83	10.9	14.2	18.3	22.9
x2 = 0.5	2.81	3.22	4.31	5.96	8.48	11.3	14.9	19.4	23.9
x2 = 0.6	3.15	3.43	4.62	6.22	8.61	11.5	15.1	19.4	23.7
x2 = 0.7	3.44	3.95	5.29	7.07	9.34	12.3	16.1	20.6	25
x2 = 0.8	3.84	4.16	5.55	7.29	9.54	12.4	15.9	20.2	24.7
x2 = 0.9	3.83	4.34	5.57	7.26	9.51	12.2	15.5	19.6	24

Cc1ccc(Nc2nccc(N(C)c3ccc4c(C)n(C)nc4c3)n2)cc1S(N)(=O)=O + CCO + CC#N
solubility (g/100 g solution)
Details	288.15 K	293.15 K	298.15 K	303.15 K	308.15 K	313.15 K	318.15 K	323.15 K	328.15 K
x2 = 0.1822	0.0124	0.029	0.0444	0.063	0.0838	0.104	0.125	0.149	0.177
x2 = 0.3727	0.026	0.0514	0.0739	0.101	0.129	0.157	0.187	0.22	0.258
x2 = 0.572	0.0528	0.0704	0.0887	0.11	0.133	0.16	0.189	0.221	0.256
x2 = 0.7809	0.0195	0.035	0.0514	0.0677	0.086	0.104	0.123	0.145	0.17

Source: the CheMixHub drug solubility set
